In ChEMBL document CHEMBL1201862, “PubChem BioAssay data set” (2004):
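Step 1: Grow cells in 96-well plates. Step 2: Expose to compound for 48 hours at 5 concentrations. Step 3: Interpolate endpoints linearly; if unreached, use highest concentration. GI50 is the concentration that inhibits growth by half.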 Calls of active or inactive are those of the source. Cut-off read from the data, not from the text of the source: active = GI50 up to about 1.1 µM and inactive = higher.

Experiments:
Assay in all cases: NCI-60 cell line screen, 48 h
HOP-92 = test system: HOP-92
NCI-H522 = test system: NCI-H522
K562 = test system: K562
Malme-3M = test system: Malme-3M
OVCAR-3 = test system: OVCAR-3
SNB-19 = test system: SNB-19
HOP-62 = test system: HOP-62
PC-3 = test system: PC-3
SF-295 = test system: SF-295
OVCAR-4 = test system: OVCAR-4
DU-145 = test system: DU-145
IGROV-1 = test system: IGROV-1
NCI/ADR-RES = test system: NCI/ADR-RES
CCRF-CEM = test system: CCRF-CEM
UACC-62 = test system: UACC-62
SK-MEL-2 = test system: SK-MEL-2
CAKI-1 = test system: CAKI-1
T47D = test system: T47D
BT-549 = test system: BT-549
M14 = test system: M14

Structure (SMILES)	GI50 (HOP-92)	GI50 (NCI-H522)	GI50 (K562)	GI50 (Malme-3M)	GI50 (OVCAR-3)	GI50 (SNB-19)	GI50 (HOP-62)	GI50 (PC-3)	GI50 (SF-295)	GI50 (OVCAR-4)	GI50 (DU-145)	GI50 (IGROV-1)	GI50 (NCI/ADR-RES)	GI50 (CCRF-CEM)	GI50 (UACC-62)	GI50 (SK-MEL-2)	GI50 (CAKI-1)	GI50 (T47D)	GI50 (BT-549)	GI50 (M14)
Nc1nc(Cl)cc(OCC2(CO)CC=CC2)n1	> 100 µM (inactive)	> 100 µM (inactive)	95.7 µM (inactive)	> 100 µM (inactive)	> 100 µM (inactive)	> 100 µM (inactive)	> 100 µM (inactive)	> 100 µM (inactive)	> 100 µM (inactive)	> 100 µM (inactive)	> 100 µM (inactive)	> 100 µM (inactive)	> 100 µM (inactive)	> 100 µM (inactive)	–	–	–	–	–	–
C/C=C1\C(=O)O[C@H]2C/C(C)=C/CC/C(C)=C/CC[C@@]3(C)O[C@@H]3C[C@@H]12	–	–	> 100 µM (inactive)	> 100 µM (inactive)	> 100 µM (inactive)	36.8 µM (inactive)	> 100 µM (inactive)	> 100 µM (inactive)	> 100 µM (inactive)	–	> 100 µM (inactive)	61.1 µM (inactive)	> 100 µM (inactive)	35 µM (inactive)	> 100 µM (inactive)	> 100 µM (inactive)	> 100 µM (inactive)	> 100 µM (inactive)	69.5 µM (inactive)	> 100 µM (inactive)
CNC(=S)/N=c1/sc(NC)nc2sc3c(c12)CCCC3	37.3 µM (inactive)	36.4 µM (inactive)	> 100 µM (inactive)	> 100 µM (inactive)	> 100 µM (inactive)	35.9 µM (inactive)	55 µM (inactive)	> 100 µM (inactive)	30.8 µM (inactive)	> 100 µM (inactive)	> 100 µM (inactive)	> 100 µM (inactive)	–	> 100 µM (inactive)	> 100 µM (inactive)	> 100 µM (inactive)	> 100 µM (inactive)	–	47.1 µM (inactive)	–
CC(=O)Nc1ccc(-c2nc3ccccc3s2)cc1O	65.9 µM (inactive)	2.22 µM (inactive)	76.2 µM (inactive)	–	94.8 µM (inactive)	> 100 µM (inactive)	32.3 µM (inactive)	51.2 µM (inactive)	52.6 µM (inactive)	92.3 µM (inactive)	34.8 µM (inactive)	20.9 µM (inactive)	17.1 µM (inactive)	22.2 µM (inactive)	18.1 µM (inactive)	49.1 µM (inactive)	27 µM (inactive)	36.1 µM (inactive)	–	59.2 µM (inactive)
C/C(CC1SCCCS1)=C(/C)CC1SCCCS1	–	–	> 100 µM (inactive)	> 100 µM (inactive)	> 100 µM (inactive)	> 100 µM (inactive)	> 100 µM (inactive)	> 100 µM (inactive)	> 100 µM (inactive)	> 100 µM (inactive)	> 100 µM (inactive)	> 100 µM (inactive)	> 100 µM (inactive)	> 100 µM (inactive)	> 100 µM (inactive)	> 100 µM (inactive)	> 100 µM (inactive)	> 100 µM (inactive)	–	> 100 µM (inactive)
O=C1CC2(CCN(Cc3ccccc3)CC2)C(=O)N1N1CCCCC1	–	> 100 µM (inactive)	> 100 µM (inactive)	> 100 µM (inactive)	> 100 µM (inactive)	> 100 µM (inactive)	> 100 µM (inactive)	> 100 µM (inactive)	> 100 µM (inactive)	–	> 100 µM (inactive)	> 100 µM (inactive)	> 100 µM (inactive)	–	> 100 µM (inactive)	> 100 µM (inactive)	> 100 µM (inactive)	> 100 µM (inactive)	> 100 µM (inactive)	> 100 µM (inactive)
CCOC(=O)C1=CN=C2C(=O)N(c3ccccc3)N(C)C2(C)C1=N (centres undefined)	> 100 µM (inactive)	> 100 µM (inactive)	> 100 µM (inactive)	> 100 µM (inactive)	> 100 µM (inactive)	> 100 µM (inactive)	–	> 100 µM (inactive)	> 100 µM (inactive)	> 100 µM (inactive)	> 100 µM (inactive)	> 100 µM (inactive)	> 100 µM (inactive)	> 100 µM (inactive)	> 100 µM (inactive)	> 100 µM (inactive)	> 100 µM (inactive)	–	> 100 µM (inactive)	> 100 µM (inactive)
O=C1C(F)=CC(COC(c2ccccc2)(c2ccccc2)c2ccccc2)OC1n1cc(F)c(=O)[nH]c1=O (centres undefined)	2.11 µM (inactive)	1.61 µM (inactive)	0.278 µM (active)	3.33 µM (inactive)	1.48 µM (inactive)	5.09 µM (inactive)	3.18 µM (inactive)	1.71 µM (inactive)	2.2 µM (inactive)	3.99 µM (inactive)	–	1.46 µM (inactive)	2.04 µM (inactive)	0.319 µM (active)	1.61 µM (inactive)	2.91 µM (inactive)	2.49 µM (inactive)	–	1.71 µM (inactive)	1.83 µM (inactive)
c1ccc(P2c3ccccc3Nc3ccccc32)cc1	30.1 µM (inactive)	62.5 µM (inactive)	44.1 µM (inactive)	49.3 µM (inactive)	16.3 µM (inactive)	59 µM (inactive)	64.9 µM (inactive)	30 µM (inactive)	59.7 µM (inactive)	38.8 µM (inactive)	78 µM (inactive)	71 µM (inactive)	> 100 µM (inactive)	23.6 µM (inactive)	37.8 µM (inactive)	36 µM (inactive)	23.5 µM (inactive)	55.2 µM (inactive)	–	66.2 µM (inactive)
COc1cc2c(cc1OC)C(C(CBr)CBr)N(C1CCCC1)CC2 (centres undefined)	41.3 µM (inactive)	> 100 µM (inactive)	> 100 µM (inactive)	> 100 µM (inactive)	> 100 µM (inactive)	> 100 µM (inactive)	> 100 µM (inactive)	–	> 100 µM (inactive)	> 100 µM (inactive)	–	> 100 µM (inactive)	–	> 100 µM (inactive)	> 100 µM (inactive)	> 100 µM (inactive)	> 100 µM (inactive)	–	–	> 100 µM (inactive)
COc1cc(C2c3cc4c(cc3[C@@H](Nc3ccc(F)cc3)C3CO[C@@H](O)[C@H]23)OCO4)cc(OC)c1O (some centres undefined)	–	3.16 µM (inactive)	4.37 µM (inactive)	–	–	3.64 µM (inactive)	5.07 µM (inactive)	3.61 µM (inactive)	1.24 µM (inactive)	12.2 µM (inactive)	–	7.62 µM (inactive)	7.36 µM (inactive)	0.925 µM (active)	–	–	–	3.72 µM (inactive)	–	5.26 µM (inactive)
CC1=C(CO)C(=O)O[C@@H]([C@@H](C)[C@H]2CC[C@H]3[C@@H]4C[C@H]5O[C@]56[C@@H](O)C=CC(=O)[C@]6(C)[C@H]4CC[C@]23C)C1 [WITHAFERIN A]	0.467 µM (active)	0.0335 µM (active)	0.193 µM (active)	0.243 µM (active)	1.05 µM (active)	2.99 µM (inactive)	2.04 µM (inactive)	–	4.22 µM (inactive)	0.566 µM (active)	–	1.16 µM (inactive)	–	0.113 µM (active)	1.45 µM (inactive)	0.601 µM (active)	0.463 µM (active)	–	–	0.423 µM (active)
O=C(O)c1nn[nH]c1S	4.59 µM (inactive)	> 100 µM (inactive)	> 100 µM (inactive)	> 100 µM (inactive)	> 100 µM (inactive)	> 100 µM (inactive)	> 100 µM (inactive)	> 100 µM (inactive)	> 100 µM (inactive)	> 100 µM (inactive)	> 100 µM (inactive)	> 100 µM (inactive)	> 100 µM (inactive)	> 100 µM (inactive)	> 100 µM (inactive)	> 100 µM (inactive)	> 100 µM (inactive)	> 100 µM (inactive)	–	> 100 µM (inactive)
Cc1[nH]c(=O)[nH]c(=S)c1C(=O)NC(C)(CO)CO	> 100 µM (inactive)	> 100 µM (inactive)	> 100 µM (inactive)	> 100 µM (inactive)	> 100 µM (inactive)	> 100 µM (inactive)	> 100 µM (inactive)	> 100 µM (inactive)	> 100 µM (inactive)	> 100 µM (inactive)	> 100 µM (inactive)	> 100 µM (inactive)	> 100 µM (inactive)	> 100 µM (inactive)	> 100 µM (inactive)	> 100 µM (inactive)	> 100 µM (inactive)	> 100 µM (inactive)	–	> 100 µM (inactive)
COC(=O)C[S+]([O-])c1ccccc1 (centres undefined)	17.6 µM (inactive)	13.8 µM (inactive)	35.9 µM (inactive)	> 100 µM (inactive)	31.3 µM (inactive)	37.8 µM (inactive)	32.6 µM (inactive)	–	36.6 µM (inactive)	41.2 µM (inactive)	–	19.2 µM (inactive)	–	7.67 µM (inactive)	29.2 µM (inactive)	35.6 µM (inactive)	58.1 µM (inactive)	–	–	37.3 µM (inactive)
CC(=O)OCc1cccc(O)c1C(=O)CCC=C(C)C	> 100 µM (inactive)	27.1 µM (inactive)	> 100 µM (inactive)	> 100 µM (inactive)	> 100 µM (inactive)	> 100 µM (inactive)	> 100 µM (inactive)	> 100 µM (inactive)	32.7 µM (inactive)	> 100 µM (inactive)	> 100 µM (inactive)	> 100 µM (inactive)	> 100 µM (inactive)	74.6 µM (inactive)	> 100 µM (inactive)	> 100 µM (inactive)	> 100 µM (inactive)	> 100 µM (inactive)	–	> 100 µM (inactive)
